Reference: ChEMBL document CHEMBL2429805, “Studies toward the development of new silicon-containing building blocks for the direct (18)F-labeling of peptides” (J Med Chem, 2013)
One block for each compound: values may come before it.

Assays:
Mus musculus [1] = experiment: Biodistribution in abdominal region of NMRI nude mouse xenografted with human PC3 cells at 3.6 to 5.1 MBq after 62 to 170 mins by PET imaging analysis; format: ADME, organism-based, Abdomen, PC-3; conditions: in vivo
[2] = Ratio of biodistribution in tumor to muscle of NMRI nude mouse xenografted with human PC3 cells after 182 mins by gamma-counting analysis; format: ADME, organism-based, PC-3; conditions: in vivo
[3] = Ratio of biodistribution in tumor to blood of NMRI nude mouse xenografted with human PC3 cells after 182 mins by gamma-counting analysis; format: ADME, organism-based, PC-3; conditions: tumour
Stomach [4] = experiment: Biodistribution in stomach of NMRI nude mouse xenografted with human PC3 cells after 182 mins by gamma-counting analysis; format: ADME, organism-based, PC-3; conditions: in vivo
Bone [5] = experiment: Biodistribution in bone of NMRI nude mouse xenografted with human PC3 cells after 182 mins by gamma-counting analysis; format: ADME, organism-based, Bone element, PC-3; conditions: in vivo
Mus musculus [6] = experiment: Biodistribution in adrenal gland of NMRI nude mouse xenografted with human PC3 cells after 182 mins by gamma-counting analysis; format: ADME, organism-based, PC-3; conditions: in vivo
[7] = Biodistribution in fat of NMRI nude mouse xenografted with human PC3 cells after 182 mins by gamma-counting analysis; format: ADME, organism-based, Adipose tissue, PC-3; conditions: in vivo
Muscle tissue [8] = experiment: Biodistribution in muscle of NMRI nude mouse xenografted with human PC3 cells after 182 mins by gamma-counting analysis; format: ADME, organism-based, PC-3; conditions: in vivo
Heart [9] = experiment: Biodistribution in heart of NMRI nude mouse xenografted with human PC3 cells after 182 mins by gamma-counting analysis; format: ADME, organism-based, PC-3; conditions: in vivo
Spleen [10] = experiment: Biodistribution in spleen of NMRI nude mouse xenografted with human PC3 cells after 182 mins by gamma-counting analysis; format: ADME, organism-based, PC-3; conditions: in vivo
[11] = Biodistribution in urine of NMRI nude mouse xenografted with human PC3 cells after 182 mins by gamma-counting analysis; format: ADME, organism-based, PC-3; conditions: in vivo
Mus musculus [12] = experiment: Biodistribution in gallbladder of NMRI nude mouse xenografted with human PC3 cells after 182 mins by gamma-counting analysis; format: ADME, organism-based, Gall bladder, PC-3; conditions: in vivo
Lung [13] = experiment: Biodistribution in lung of NMRI nude mouse xenografted with human PC3 cells after 182 mins by gamma-counting analysis; format: ADME, organism-based, PC-3; conditions: in vivo
Intestine [14] = experiment: Biodistribution in intestine of NMRI nude mouse xenografted with human PC3 cells after 182 mins by gamma-counting analysis; format: ADME, organism-based, PC-3; conditions: in vivo
Kidney [15] = experiment: Biodistribution in kidney of NMRI nude mouse xenografted with human PC3 cells after 182 mins by gamma-counting analysis; format: ADME, organism-based, PC-3; conditions: in vivo
Liver [16] = experiment: Biodistribution in liver of NMRI nude mouse xenografted with human PC3 cells after 182 mins by gamma-counting analysis; format: ADME, organism-based, PC-3; conditions: in vivo
Mus musculus [17] = experiment: Biodistribution in prostate of NMRI nude mouse xenografted with human PC3 cells after 182 mins by gamma-counting analysis; format: ADME, organism-based, Prostate gland, PC-3; conditions: in vivo
Pancreas [18] = experiment: Biodistribution in pancreas of NMRI nude mouse xenografted with human PC3 cells after 182 mins by gamma-counting analysis; format: ADME, organism-based, PC-3; conditions: in vivo
Blood [19] = experiment: Biodistribution in blood of NMRI nude mouse xenografted with human PC3 cells after 182 mins by gamma-counting analysis; format: ADME, organism-based, PC-3; conditions: in vivo
Mus musculus [20] = experiment: Biodistribution in tumor of NMRI nude mouse xenografted with human PC3 cells after 182 mins by gamma-counting analysis; format: ADME, organism-based, Neoplasm, PC-3; conditions: in vivo
[21] = Ratio of biodistribution in tumor to muscle of NMRI nude mouse xenografted with human PC3 cells after 104 mins by gamma-counting analysis; format: ADME, organism-based, PC-3; conditions: in vivo
[22] = Ratio of biodistribution in tumor to blood of NMRI nude mouse xenografted with human PC3 cells after 104 mins by gamma-counting analysis; format: ADME, organism-based, PC-3; conditions: tumour
Stomach [23] = experiment: Biodistribution in stomach of NMRI nude mouse xenografted with human PC3 cells after 104 mins by gamma-counting analysis; format: ADME, organism-based, PC-3; conditions: in vivo
Bone [24] = experiment: Biodistribution in bone of NMRI nude mouse xenografted with human PC3 cells after 104 mins by gamma-counting analysis; format: ADME, organism-based, Bone element, PC-3; conditions: in vivo
Mus musculus [25] = experiment: Biodistribution in adrenal gland of NMRI nude mouse xenografted with human PC3 cells after 104 mins by gamma-counting analysis; format: ADME, organism-based, PC-3; conditions: in vivo
Muscle tissue [26] = experiment: Biodistribution in muscle of NMRI nude mouse xenografted with human PC3 cells after 104 mins by gamma-counting analysis; format: ADME, organism-based, PC-3; conditions: in vivo
[27] = Biodistribution in fat of NMRI nude mouse xenografted with human PC3 cells after 104 mins by gamma-counting analysis; format: ADME, organism-based, Adipose tissue, PC-3; conditions: in vivo
Heart [28] = experiment: Biodistribution in heart of NMRI nude mouse xenografted with human PC3 cells after 104 mins by gamma-counting analysis; format: ADME, organism-based, PC-3; conditions: in vivo
Spleen [29] = experiment: Biodistribution in spleen of NMRI nude mouse xenografted with human PC3 cells after 104 mins by gamma-counting analysis; format: ADME, organism-based, PC-3; conditions: in vivo
[30] = Biodistribution in urine of NMRI nude mouse xenografted with human PC3 cells after 104 mins by gamma-counting analysis; format: ADME, organism-based, PC-3; conditions: in vivo
Mus musculus [31] = experiment: Biodistribution in gallbladder of NMRI nude mouse xenografted with human PC3 cells after 104 mins by gamma-counting analysis; format: ADME, organism-based, Gall bladder, PC-3; conditions: in vivo
Lung [32] = experiment: Biodistribution in lung of NMRI nude mouse xenografted with human PC3 cells after 104 mins by gamma-counting analysis; format: ADME, organism-based, PC-3; conditions: in vivo
Intestine [33] = experiment: Biodistribution in intestine of NMRI nude mouse xenografted with human PC3 cells after 104 mins by gamma-counting analysis; format: ADME, organism-based, PC-3; conditions: in vivo
Kidney [34] = experiment: Biodistribution in kidney of NMRI nude mouse xenografted with human PC3 cells after 104 mins by gamma-counting analysis; format: ADME, organism-based, PC-3; conditions: in vivo
Liver [35] = experiment: Biodistribution in liver of NMRI nude mouse xenografted with human PC3 cells after 104 mins by gamma-counting analysis; format: ADME, organism-based, PC-3; conditions: in vivo
Mus musculus [36] = experiment: Biodistribution in prostate of NMRI nude mouse xenografted with human PC3 cells after 104 mins by gamma-counting analysis; format: ADME, organism-based, Prostate gland, PC-3; conditions: in vivo
Pancreas [37] = experiment: Biodistribution in pancreas of NMRI nude mouse xenografted with human PC3 cells after 104 mins by gamma-counting analysis; format: ADME, organism-based, PC-3; conditions: in vivo
Blood [38] = experiment: Biodistribution in blood of NMRI nude mouse xenografted with human PC3 cells after 104 mins by gamma-counting analysis; format: ADME, organism-based, PC-3; conditions: in vivo
Mus musculus [39] = experiment: Biodistribution in tumor of NMRI nude mouse xenografted with human PC3 cells after 104 mins by gamma-counting analysis; format: ADME, organism-based, Neoplasm, PC-3; conditions: in vivo
Mus musculus [40] = experiment: Biodistribution in tumor of NMRI nude mouse xenografted with human PC3 cells at 3.6 to 5.1 MBq after 62 to 170 mins by PET imaging analysis; format: ADME, organism-based, Neoplasm, PC-3; conditions: in vivo
[41] = Stability of the compound in PBS buffer up to 2 hrs; format: physicochemical
[42] = Lipophilicity, log D of the compound; format: physicochemical; conditions: octanol/water
[43] = Ratio of biodistribution in tumor to blood of NMRI nude mouse xenografted with human PC3 cells after 120 mins by gamma-counting analysis; format: ADME, organism-based, PC-3; conditions: tumour, 2 h
Spleen [44] = experiment: Biodistribution in spleen of NMRI nude mouse xenografted with human PC3 cells after 120 mins by gamma-counting analysis; format: ADME, organism-based, PC-3; conditions: in vivo, 2 h
Mus musculus [45] = experiment: Biodistribution in gallbladder of NMRI nude mouse xenografted with human PC3 cells after 120 mins by gamma-counting analysis; format: ADME, organism-based, Gall bladder, PC-3; conditions: in vivo, 2 h
Kidney [46] = experiment: Biodistribution in kidney of NMRI nude mouse xenografted with human PC3 cells after 120 mins by gamma-counting analysis; format: ADME, organism-based, PC-3; conditions: in vivo, 2 h
Intestine [47] = experiment: Biodistribution in intestine of NMRI nude mouse xenografted with human PC3 cells after 120 mins by gamma-counting analysis; format: ADME, organism-based, PC-3; conditions: in vivo, 2 h
Liver [48] = experiment: Biodistribution in liver of NMRI nude mouse xenografted with human PC3 cells after 120 mins by gamma-counting analysis; format: ADME, organism-based, PC-3; conditions: in vivo, 2 h
Pancreas [49] = experiment: Biodistribution in pancreas of NMRI nude mouse xenografted with human PC3 cells after 120 mins by gamma-counting analysis; format: ADME, organism-based, PC-3; conditions: in vivo, 2 h
Blood [50] = experiment: Biodistribution in blood of NMRI nude mouse xenografted with human PC3 cells after 120 mins by gamma-counting analysis; format: ADME, organism-based, PC-3; conditions: in vivo, 2 h
Mus musculus [51] = experiment: Biodistribution in tumor of NMRI nude mouse xenografted with human PC3 cells after 120 mins by gamma-counting analysis; format: ADME, organism-based, Neoplasm, PC-3; conditions: in vivo, 2 h

Drug uptake (Mus musculus [1]): Not Active
Ratio [2]: 8.41
Ratio [3]: 0.95
Drug uptake (Stomach [4]): 0.8 % ID/g
Drug uptake (Bone [5]): 0.92 % ID/g
Drug uptake (Mus musculus [6]): 2.07 % ID/g
Drug uptake [7]: 0.51 % ID/g
Drug uptake (Muscle tissue [8]): 0.29 % ID/g
Drug uptake (Heart [9]): 0.85 % ID/g
Drug uptake (Spleen [10]): 1.32 % ID/g
Drug uptake [11]: 20 % ID/g
Drug uptake (Mus musculus [12]): 128 % ID/g
Drug uptake (Lung [13]): 1.94 % ID/g
Drug uptake (Intestine [14]): 9.5 % ID/g
Drug uptake (Kidney [15]): 4.1 % ID/g
Drug uptake (Liver [16]): 13 % ID/g
Drug uptake (Mus musculus [17]): 0.29 % ID/g
Drug uptake (Pancreas [18]): 21 % ID/g
Drug uptake (Blood [19]): 2.58 % ID/g
Drug uptake (Mus musculus [20]): 2.44 % ID/g
Ratio [21]: 5.03
Ratio [22]: 0.65
Drug uptake (Stomach [23]): 0.42 % ID/g
Drug uptake (Bone [24]): 1.09 % ID/g
Drug uptake (Mus musculus [25]): 5.01 % ID/g
Drug uptake (Muscle tissue [26]): 0.69 % ID/g
Drug uptake [27]: 1.24 % ID/g
Drug uptake (Heart [28]): 1.37 % ID/g
Drug uptake (Spleen [29]): 2.15 % ID/g
Drug uptake [30]: 25 % ID/g
Drug uptake (Mus musculus [31]): 36 % ID/g
Drug uptake (Lung [32]): 4.2 % ID/g
Drug uptake (Intestine [33]): 12.6 % ID/g
Drug uptake (Kidney [34]): 6 % ID/g
Drug uptake (Liver [35]): 25 % ID/g
Drug uptake (Mus musculus [36]): 0.44 % ID/g
Drug uptake (Pancreas [37]): 46 % ID/g
Drug uptake (Blood [38]): 5.37 % ID/g
Drug uptake (Mus musculus [39]): 3.47 % ID/g
Drug uptake (Mus musculus [40]): Active
Stability [41]: Stable
Structure (SMILES): CC(C)C[C@H](NC(=O)C[C@H](O)[C@H](CC(C)C)NC(=O)[C@H](Cc1cnc[nH]1)NC(=O)CN(C)C(=O)[C@@H](NC(=O)[C@H](C)NC(=O)[C@H](Cc1c[nH]c2ccccc12)NC(=O)[C@H](CCC(N)=O)NC(=O)CCCCNC(=O)[C@H](CS(=O)(=O)O)NC(=O)[C@H](CS(=O)(=O)O)NC(=O)C(O)C(O)C(=O)NCCc1ccc([Si]([18F])(C(C)(C)C)C(C)(C)C)cc1)C(C)C)C(N)=O (stereo partly specified)

logD [42]: 1.3
Ratio [43]: 0.95
Drug uptake (Spleen [44]): 0.46 % ID/g
Drug uptake (Mus musculus [45]): 146 % ID/g
Drug uptake (Kidney [46]): 1.73 % ID/g
Drug uptake (Intestine [47]): 16 % ID/g
Drug uptake (Liver [48]): 4.4 % ID/g
Drug uptake (Pancreas [49]): 4.08 % ID/g
Drug uptake (Blood [50]): 0.42 % ID/g
Drug uptake (Mus musculus [51]): 0.4 % ID/g
Structure (SMILES): CC(C)C[C@H](NC(=O)C[C@H](O)[C@H](CC(C)C)NC(=O)[C@H](Cc1cnc[nH]1)NC(=O)CN(C)C(=O)[C@@H](NC(=O)[C@H](C)NC(=O)[C@H](Cc1c[nH]c2ccccc12)NC(=O)[C@H](CCC(N)=O)NC(=O)CCCCNC(=O)[C@H](CCCNC(=N)N)NC(=O)Cc1ccc([Si]([18F])(C(C)(C)C)C(C)(C)C)cc1)C(C)C)C(N)=O
